Some test systems named below: SF-268 CNS; TK-10 renal; NCI-H23 lung; OVCAR-3 ovarian; MCF7 breast; OVCAR-4 ovarian; SR leukemia; HCT-15 colon; HCC-2998 colon; SW-620 colon.
Common to all, as to assay: growth of human tumour cells (NCI), 48 h

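96-well plates; 48 h exposure; 5 concentrations. Endpoints by linear interpolation between flanking doses. Not reached: highest tested concentration assigned. GI50: concentration for 50% inhibition of growth. TGI: concentration producing complete growth inhibition.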

`CC(=O)OC1COC(Oc2c(C)c3c4c(c2O)[C@@H](C)CC[C@@H]4[C@@H](C)C[C@H]3C=C(C)C)C(O)C1O` (some centres not stated): the GI50 in the assay with SF-268 CNS was 15400 nM; in the assay on TK-10 renal, 16.3 µM; in the assay on NCI-H23 lung, 16600 nM; with OVCAR-3 ovarian, 16.1 µM; in the assay on MCF7 breast it was 20700 nM; with OVCAR-4 ovarian, 25.6 µM. Also, the GI50 was 9130 nM in the assay on SR leukemia, 17.9 µM with HCT-15 colon and 15.1 µM with HCC-2998 colon. The TGI is 38.5 µM in the assay with SF-268 CNS; 31 µM in the assay on TK-10 renal; 33.2 µM in the assay with NCI-H23 lung; 31.3 µM in the assay with OVCAR-3 ovarian; more than 100 µM in the assay on MCF7 breast; 86.5 µM with OVCAR-4 ovarian. The TGI in the assay on SR leukemia is 25.7 µM; with HCT-15 colon it was 37.9 µM; with HCC-2998 colon, 31.3 µM.

With `CC1(C)N=C(N)N=C(N)N1c1ccc(OCCCCNC(=O)Nc2cccc(S(=O)(=O)F)c2)c(Cl)c1`, the GI50 with SF-268 CNS was 649 nM; in the assay with OVCAR-3 ovarian it was 6.89 µM; with SW-620 colon, 657 nM; in the assay on MCF7 breast, 2090 nM; in the assay on OVCAR-4 ovarian, 13.3 µM; with SR leukemia, 1020 nM. The values for the GI50 with HCT-15 colon and in the assay on HCC-2998 colon were 10.6 µM and 5.22 µM, respectively. Also, the TGI in the assay on SF-268 CNS, in the assay with OVCAR-3 ovarian, in the assay with SW-620 colon, in the assay on MCF7 breast, with OVCAR-4 ovarian and in the assay on SR leukemia was more than 100 µM in each case. Besides, the TGI in the assay on HCT-15 colon and in the assay on HCC-2998 colon was more than 100 µM each time.

As for `CC1=C(C(=O)CC(=O)C(=O)Nc2ccccc2C)Sc2ccccc2N1`, the TGI in the assay on SF-268 CNS is more than 100 µM; with TK-10 renal, more than 100 µM; in the assay with NCI-H23 lung it was more than 100 µM; in the assay on OVCAR-3 ovarian, more than 100 µM; with SW-620 colon it was more than 54.1 µM; in the assay with OVCAR-4 ovarian, more than 100 µM. For the same compound, the TGI with SR leukemia, in the assay on HCT-15 colon and in the assay with HCC-2998 colon was more than 100 µM each time.

For the compound `CN1CC[C@]23c4c5ccc(O)c4OC2c2[nH]ncc2C[C@H]3[C@H]1C5` (some centres not stated), the TGI with SF-268 CNS, in the assay with TK-10 renal, in the assay on NCI-H23 lung, in the assay with OVCAR-3 ovarian, in the assay on MCF7 breast and with OVCAR-4 ovarian was more than 100 µM in each case. Besides, the TGI with SR leukemia, in the assay on HCT-15 colon and in the assay with HCC-2998 colon was more than 100 µM each time.

Consider `O=C(Nc1cccc(-n2cc(-c3ccncc3)c(-c3ccc(O)c(Cl)c3)n2)c1)Nc1ccc(Cl)c(Cl)c1`, for which the GI50 is 2650 nM in the assay on SF-268 CNS; 2.83 µM in the assay with TK-10 renal; 1880 nM with NCI-H23 lung; 2630 nM with SW-620 colon; 1880 nM in the assay on MCF7 breast; 2.4 µM in the assay on OVCAR-4 ovarian. Also, the GI50 in the assay on SR leukemia is 430 nM; with HCT-15 colon, 1.63 µM; with HCC-2998 colon, 3.65 µM. Also, the TGI is 16.6 µM in the assay on SF-268 CNS; 7.56 µM in the assay on TK-10 renal; 6.62 µM with NCI-H23 lung; 7.32 µM with SW-620 colon; 5.23 µM in the assay on MCF7 breast; 9.5 µM in the assay with OVCAR-4 ovarian. In addition, the TGI in the assay on SR leukemia was 2.75 µM; in the assay with HCT-15 colon, 8.52 µM; in the assay on HCC-2998 colon, more than 100 µM.

`O=C(Nc1ccc(Br)cc1)Nc1cccc(Br)c1`: the GI50 with SF-268 CNS is more than 100000 nM; in the assay on SW-620 colon, 5540 nM; in the assay on MCF7 breast it was 3200 nM; with SR leukemia it was 11600 nM. Besides, the TGI in the assay on SF-268 CNS, with SW-620 colon, in the assay with MCF7 breast and with SR leukemia was more than 100 µM each time.

For the compound `O=C(O)C1=C(C(=O)O)Oc2ccccc2O1`, the TGI in the assay on SF-268 CNS, in the assay on TK-10 renal, with NCI-H23 lung, in the assay with OVCAR-3 ovarian, in the assay on SW-620 colon and with OVCAR-4 ovarian was more than 100 µM in each case. Further, the TGI in the assay on SR leukemia, in the assay on HCT-15 colon and in the assay with HCC-2998 colon was more than 100 µM each time.

Turning to `Cc1ccc(-c2nc(C(Cl)Cl)nc3cc(C)nn23)cc1`, the GI50 was 2690 nM in the assay with SF-268 CNS; 3.55 µM in the assay on TK-10 renal; 742 nM in the assay with NCI-H23 lung; 1.47 µM in the assay on OVCAR-3 ovarian; 1970 nM in the assay with MCF7 breast; 1.07 µM in the assay with OVCAR-4 ovarian. In addition, the GI50 in the assay with SR leukemia is 342 nM; in the assay with HCT-15 colon, 1.24 µM; in the assay with HCC-2998 colon, 1.18 µM. The TGI with SF-268 CNS was more than 100 µM; with TK-10 renal, more than 100 µM; in the assay with NCI-H23 lung, 2.75 µM; in the assay on OVCAR-3 ovarian, 3.42 µM; with MCF7 breast, more than 100 µM; with OVCAR-4 ovarian it was 3.87 µM. Also, the TGI with SR leukemia is more than 100 µM; in the assay on HCT-15 colon it was 4.61 µM; in the assay on HCC-2998 colon it was 2.59 µM.

With `CC(C)c1cc(C(C)C)c(Cl)c(Cl)c1O` (tested in a mixture with another compound), the TGI in the assay with SF-268 CNS is 42.4 µM; in the assay on TK-10 renal, 54.3 µM; with NCI-H23 lung, more than 100 µM; in the assay with OVCAR-3 ovarian, 60.1 µM; in the assay on SW-620 colon it was 82.1 µM; in the assay on MCF7 breast, 54.6 µM. The TGI in the assay on SR leukemia was 63.4 µM; in the assay on HCT-15 colon it was more than 100 µM; in the assay on HCC-2998 colon it was 64.5 µM.

As to `CN(C)CCNC(=O)c1cccc2cc3ccc4ccccc4c3nc12`, the TGI in the assay on SF-268 CNS came to 1.2 µM; in the assay on TK-10 renal it was 0.904 µM; with NCI-H23 lung it was 0.39 µM; with OVCAR-3 ovarian, 0.738 µM; in the assay on SW-620 colon, 1.19 µM; with OVCAR-4 ovarian it was 0.752 µM. In addition, the TGI with SR leukemia was 0.147 µM; in the assay on HCT-15 colon, 0.593 µM; in the assay with HCC-2998 colon, 0.252 µM.

As for `Nc1nc(-c2ccccc2)cc(-c2cc(Cl)ccc2O)n1`, the TGI was more than 100 µM in the assay on SF-268 CNS; more than 100 µM with TK-10 renal; more than 100 µM with NCI-H23 lung; 94.4 µM in the assay on OVCAR-3 ovarian; more than 100 µM in the assay on SW-620 colon; more than 100 µM in the assay with OVCAR-4 ovarian. Further, the TGI in the assay on SR leukemia, in the assay with HCT-15 colon and in the assay with HCC-2998 colon was more than 100 µM in each case.

The values above are taken from PubChem BioAssay (NCI).
